Columns and labels:
[1] = Hydrogen peroxide scavenging assay; conditions: for H2O2 free radical scavenging ability: mean ± S.E.M, n = 3
Experimental: In addition to DPPH the ligand acids and their complexes were also evaluated for their peroxide scavenging ability test. Hydrogen peroxide (H2O2) is a biologically important, non-radical reactive oxygen species (ROS) that can influence several cellular processes. It is a weak oxidizing agent and can inactivate a few enzymes directly, usually via oxidation of essential thiol (-SH) groups. It can cross cell membranes rapidly, and inside the cell, H2O2 probably reacts with Fe^2+ (and possibly Cu^2+) ions to form the hydroxyl radical, which may be the origin of many of its toxic effects. It is, therefore, biologically advantageous for cells to control the amount of hydrogen peroxide that is allowed to accumulate.
The ligand acids and their Cu(II) carboxylates were further subjected to H2O2 scavenging ability test potential by following the procedure as per cited literature. A 2 mM solution of H2O2 was made in 50 mM phosphate buffer having a pH 7.4. In the next step, 0.1 mL of the screened compounds was added to the 0.3 mL (50 mM) of phosphate buffer, then 0.6 mL of H2O2 was added and the solution was vortexed. After following the incubation period of 10 min, the absorption was 230 nm in comparison to the blank.

DPPH scavenging assay [2] = conditions: for DPPH Free Radical Scavenging Ability: mean ± S.E.M, n = 3
From the text: The antioxidant potential of the free acids and their Cu(II) carboxylates was explored via the DPPH method using ascorbic acid as a reference. The DPPH, with a single unpaired electron, is capable of accepting a hydrogen or electron and gives a strong absorption at 517 nm. The absorption generally decreases when it accepts a hydrogen or electron from an antioxidant, forming a stable molecule. The results given in Table 5 indicate that the compounds under study show a moderate level of antioxidant potential. This activity may be attributed to the various structural and electronic factors like coordination geometry, redox properties, chelate ring size, degree of unsaturation, etc.. The transfer of proton or electron from an antioxidant to DPPH results in the formation of species that undergo other reactions like coupling, fragmentation, and addition, which affect the rate and stoichiometry of the reaction.
The compounds under study were subjected to DPPH scavenging ability test as per cited literature. A 0.004% solution of reagent DPPH was added to the different concentrations of tested compounds (i.e., 125, 250, 500 and 1000 μg/mL) and the reaction mixture was incubated subsequently for about thirty minutes in dark. Ascorbic acid was used as positive control. The UV-3000 O.R.I. Germany was used to record the change in absorption of the reaction mixture at 517 nm and the percentage scavenging ability of the compounds under study was determined using formula: % scavenging activity =Absorbance of control−Absorbance of compounds /Absorbance of control×100
The experiments were repeated thrice. The GraphPad Prism® (version 4.0, Sandiego, CA, USA) was used to calculate the IC50 values.

[3] = molecular target: butyrylcholinesterase (BChE) (Equus caballus, UniProt P81908); test: biochemical; conditions: for inhibition of butyrylcholinesterase (% BChE activity): n = 3
Experimental: (§1) The enzymes acetylcholinesterase (AChE) and butyrylcholinesterase (BChE) play an important role in the transfer of signals and physiological function. They assist acetylcholine to hydrolyze and produce choline and acetyl group in synaptic region. So, they are considered as targets in the management of Alzheimer’s disease. Herein, the compounds under study were evaluated for their potential to inhibit acetylthiocholine iodide (AChI) and butyrylthiocholine iodide (BChI) enzymes.
(§2) The well-known Ellman’s assay was implemented to evaluate the inhibitory potential using acetylthiocholine iodide (AChI) and butyrylthiocholine iodide (BChI) as substrates, respectively. The basic principle of the assay is the hydrolysis of acetylthiocholine iodide and butyrylthiocholine iodide by their corresponding enzymes, resulting in the formation of 5-thio-2-nitrobenzoate anion.
(§3) To carry out the assay, 0.1 M buffer solution with pH 8 was prepared as per the cited literature where the pH was adjusted using KOH (potassium hydroxide). Using the freshly prepared buffer and following the dilution, final concentrations of 0.03 U/mL for AChE (518 U/mg solid) and 0.01 U/mL for BChE (7–16 U/mg) were obtained. […] After that, the final solution of each of the AChE and BChE was prepared in distilled water in the presence of […] DTNB and were stored at 8 °C. The experiment was performed by taking 205 µL of inhibitor (tested compound) along with 5 µL of prepared solutions of enzymes, followed by the addition of 5 μL DTNB reagent. They were then incubated for about 15 min in a water bath at a temperature of 30 °C. Later on, 5 µL substrate solution was added to them which were subjected to absorption check at 412 nm. […] The temperature of the spectrophotometer was adjusted at 30 °C and then, following the reaction time of 4 min, the absorbance values were noted after regular intervals. The experiment was repeated, and change in absorption with time was used to calculate the percentage activity of enzyme and enzyme inhibitor [59]. The p values, or calculated probability levels, are categorized as: 5% (p < 0.05), 1% (p < 0.01) and 0.1% (p < 0.001). p < 0.05 means statistically significant and p < 0.001 means highly statistically significant.

DPPH scavenging assay [4] = conditions: Comp. Conc. 62.5 µg/mL; mean ± S.E.M, n = 3
[5] = molecular target: acetylcholinesterase (AChE) (Electrophorus electricus, UniProt O42275); test: biochemical; assay type: biochemical; conditions: for Inhibition of Acetylcholinesterase (%AChE Activity): n = 3
Experimental: The synthesized compounds were evaluated for acetylcholinesterase (ACh) and butyrylcholinesterase (BCh) enzyme inhibitory activities.
as §1, §2, §3

Chain of acetylcholinesterase (AChE) (O42275 24-633): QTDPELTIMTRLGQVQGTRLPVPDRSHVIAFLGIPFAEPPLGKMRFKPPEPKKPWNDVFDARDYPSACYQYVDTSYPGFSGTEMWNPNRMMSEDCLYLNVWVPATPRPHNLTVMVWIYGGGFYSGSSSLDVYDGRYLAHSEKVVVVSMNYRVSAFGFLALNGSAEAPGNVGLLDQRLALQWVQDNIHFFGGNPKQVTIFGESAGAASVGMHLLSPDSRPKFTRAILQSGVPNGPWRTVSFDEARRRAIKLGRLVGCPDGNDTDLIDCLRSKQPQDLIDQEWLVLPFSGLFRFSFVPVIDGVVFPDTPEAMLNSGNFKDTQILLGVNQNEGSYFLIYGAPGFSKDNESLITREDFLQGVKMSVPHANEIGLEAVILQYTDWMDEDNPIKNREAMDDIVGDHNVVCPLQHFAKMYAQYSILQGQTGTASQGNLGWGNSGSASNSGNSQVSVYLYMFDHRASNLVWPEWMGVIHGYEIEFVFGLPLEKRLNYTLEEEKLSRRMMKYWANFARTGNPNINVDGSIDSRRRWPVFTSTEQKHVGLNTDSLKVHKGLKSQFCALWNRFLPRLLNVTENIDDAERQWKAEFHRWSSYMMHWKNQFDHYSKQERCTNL
Chain of butyrylcholinesterase (BChE) (P81908 whole entry): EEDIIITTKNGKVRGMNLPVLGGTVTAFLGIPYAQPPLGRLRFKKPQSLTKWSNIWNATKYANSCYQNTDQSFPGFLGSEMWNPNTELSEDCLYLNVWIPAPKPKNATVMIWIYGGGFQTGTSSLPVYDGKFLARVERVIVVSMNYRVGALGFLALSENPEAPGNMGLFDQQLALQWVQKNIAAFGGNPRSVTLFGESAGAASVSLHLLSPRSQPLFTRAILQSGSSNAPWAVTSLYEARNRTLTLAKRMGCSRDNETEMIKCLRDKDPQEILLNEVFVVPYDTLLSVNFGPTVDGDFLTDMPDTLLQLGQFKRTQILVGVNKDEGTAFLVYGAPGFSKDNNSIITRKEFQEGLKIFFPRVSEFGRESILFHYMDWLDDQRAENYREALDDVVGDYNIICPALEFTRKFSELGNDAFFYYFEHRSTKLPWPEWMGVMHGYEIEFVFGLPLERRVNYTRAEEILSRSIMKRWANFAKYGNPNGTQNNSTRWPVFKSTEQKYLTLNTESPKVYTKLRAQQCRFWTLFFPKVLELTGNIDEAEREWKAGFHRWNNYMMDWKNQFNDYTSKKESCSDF

O=C([O-])Cc1cccc(Cl)c1.O=C([O-])Cc1cccc(Cl)c1.O=C([O-])Cc1cccc(Cl)c1.O=C([O-])Cc1cccc(Cl)c1.Oc1ccncc1.Oc1ccncc1.[Cu+2].[Cu+2] [Complex 6, Cu2(3-ClC6H4COO)4(4-OHPy)2]
IC50, H2O2 free radical scavenging ability [1]: 10.65 µg/mL | H2O2 free radical scavenging ability ([1]; Comp. Conc. 62.5 µg/mL): 61.35 ± 0.18 % | H2O2 free radical scavenging ability ([1]; Comp. Conc. 125 µg/mL): 66.20 ± 0.15 % | H2O2 free radical scavenging ability ([1]; Comp. Conc. 250 µg/mL): 73.42 ± 0.11 % | H2O2 free radical scavenging ability ([1]; Comp. Conc. 500 µg/mL): 78.62 ± 0.17 % | H2O2 free radical scavenging ability ([1]; Comp. Conc. 1000 µg/mL): 83.53 ± 0.20 % | IC50, DPPH Free Radical Scavenging Ability (DPPH scavenging assay [2]): 14.51 µg/mL | DPPH Free Radical Scavenging Ability (DPPH scavenging assay [2]; Comp. Conc. 125 µg/mL): 63.47 ± 0.49 % | DPPH Free Radical Scavenging Ability (DPPH scavenging assay [2]; Comp. Conc. 250 µg/mL): 68.75 ± 0.14 % | DPPH Free Radical Scavenging Ability (DPPH scavenging assay [2]; Comp. Conc. 500 µg/mL): 75.59 ± 0.30 % | DPPH Free Radical Scavenging Ability (DPPH scavenging assay [2]; Comp. Conc. 1000 µg/mL): 80.85 ± 0.18 % | IC50, inhibition of butyrylcholinesterase [3]: 42 µg/mL | inhibition of butyrylcholinesterase (% BChE activity) ([3]; Comp. Conc. 62.5 µg/mL): 57.00 ± 1.15 % | inhibition of butyrylcholinesterase (% BChE activity) ([3]; Comp. Conc. 125 µg/mL): 61.67 ± 0.89 % | inhibition of butyrylcholinesterase (% BChE activity) ([3]; Comp. Conc. 250 µg/mL): 65.00 ± 0.58 % | inhibition of butyrylcholinesterase (% BChE activity) ([3]; Comp. Conc. 500 µg/mL): 72.03 ± 0.23 % | inhibition of butyrylcholinesterase (% BChE activity) ([3]; Comp. Conc. 1000 µg/mL): 75.33 ± 0.49 % | DPPH Free Radical Scavenging Ability (DPPH scavenging assay [4]): 58.12 ± 0.34 % | Inhibition of Acetylcholinesterase (%AChE Activity) ([5]; Comp. Conc. 62.5 µg/mL): 58.74 ± 0.68 % | Inhibition of Acetylcholinesterase (%AChE Activity) ([5]; Comp. Conc. 125 µg/mL): 62.70 ± 1.25 % | Inhibition of Acetylcholinesterase (%AChE Activity) ([5]; Comp. Conc. 250 µg/mL): 67.05 ± 0.75 % | Inhibition of Acetylcholinesterase (%AChE Activity) ([5]; Comp. Conc. 500 µg/mL): 72.32 ± 1.06 % | Inhibition of Acetylcholinesterase (%AChE Activity) ([5]; Comp. Conc. 1000 µg/mL): 77.34 ± 0.98 %

N#Cc1cccnc1.N#Cc1cccnc1.O=C([O-])Cc1ccccc1Cl.O=C([O-])Cc1ccccc1Cl.O=C([O-])Cc1ccccc1Cl.O=C([O-])Cc1ccccc1Cl.[Cu+2].[Cu+2] [Complex 1, Cu2(2-ClC6H4COO)4(3-CNPy)2]
H2O2 free radical scavenging ability ([1]; Comp. Conc. 62.5 µg/mL): 53.50 ± 0.73 % | H2O2 free radical scavenging ability ([1]; Comp. Conc. 125 µg/mL): 62.42 ± 0.57 % | H2O2 free radical scavenging ability ([1]; Comp. Conc. 250 µg/mL): 70.32 ± 0.52 % | H2O2 free radical scavenging ability ([1]; Comp. Conc. 500 µg/mL): 74.27 ± 0.57 % | H2O2 free radical scavenging ability ([1]; Comp. Conc. 1000 µg/mL): 80.30 ± 0.64 % | IC50, DPPH Free Radical Scavenging Ability (DPPH scavenging assay [2]): 17.69 µg/mL | DPPH Free Radical Scavenging Ability (DPPH scavenging assay [2]; Comp. Conc. 125 µg/mL): 61.40 ± 0.51 % | DPPH Free Radical Scavenging Ability (DPPH scavenging assay [2]; Comp. Conc. 250 µg/mL): 67.44 ± 0.55 % | DPPH Free Radical Scavenging Ability (DPPH scavenging assay [2]; Comp. Conc. 500 µg/mL): 73.47 ± 0.52 % | DPPH Free Radical Scavenging Ability (DPPH scavenging assay [2]; Comp. Conc. 1000 µg/mL): 78.39 ± 0.49 % | IC50, inhibition of butyrylcholinesterase [3]: 12 µg/mL | inhibition of butyrylcholinesterase (% BChE activity) ([3]; Comp. Conc. 62.5 µg/mL): 64.53 ± 0.71 % | inhibition of butyrylcholinesterase (% BChE activity) ([3]; Comp. Conc. 125 µg/mL): 68.51 ± 0.77 % | inhibition of butyrylcholinesterase (% BChE activity) ([3]; Comp. Conc. 250 µg/mL): 71.75 ± 0.58 % | inhibition of butyrylcholinesterase (% BChE activity) ([3]; Comp. Conc. 500 µg/mL): 76.45 ± 0.49 % | inhibition of butyrylcholinesterase (% BChE activity) ([3]; Comp. Conc. 1000 µg/mL): 81.79 ± 0.62 % | DPPH Free Radical Scavenging Ability (DPPH scavenging assay [4]): 55.57 ± 0.84 % | IC50, Inhibition of Acetylcholinesterase [5]: 39 µg/mL | Inhibition of Acetylcholinesterase (%AChE Activity) ([5]; Comp. Conc. 62.5 µg/mL): 55.67 ± 0.61 % | Inhibition of Acetylcholinesterase (%AChE Activity) ([5]; Comp. Conc. 125 µg/mL): 62.69 ± 0.77 % | Inhibition of Acetylcholinesterase (%AChE Activity) ([5]; Comp. Conc. 250 µg/mL): 67.83 ± 0.56 % | Inhibition of Acetylcholinesterase (%AChE Activity) ([5]; Comp. Conc. 500 µg/mL): 72.60 ± 0.80 % | Inhibition of Acetylcholinesterase (%AChE Activity) ([5]; Comp. Conc. 1000 µg/mL): 77.61 ± 0.77 %

— paper PMC10224544, “Synthesis, Structural Elucidation and Pharmacological Applications of Cu(II) Heteroleptic Carboxylates” (Pharmaceuticals, 2023)
